Data taken from US10125135B2, “Chemical compounds” (AstraZeneca AB, priority 2016, dated 2018).
Values after ≈ are worked out from the molar mass of the structure shown.

Columns and labels:
ERα receptor = ERα receptor (Homo sapiens (Human), UniProt P03372); conditions: 500mg monthly dose; cited from earlier work
[1] = Thermodynamic solubility, shake-flask; type: physicochemical; conditions: thermodynamic from solid; aqueous phosphate buffer pH 7.4, 24 hours at 25° C.
Description: The thermodynamic solubility of a research compound is measured under standard conditions. It is a shake-flask approach that uses 10 mM DMSO solutions which are supplied from the Compound Managements liquid store and is a high throughput method. The dried compounds are equilibrated in an aqueous phosphate buffer (pH 7.4) for 24 hours at 25° C., the portion with the dissolved compound is then separated from the remains. The solutions are analyzed and quantified using UPLC/MS/MS, QC-samples are incorporated in each assay-run to ensure the quality of the assay.

[2] = target: estrogen receptor (ERα) in CAMA-1 human breast cancer cell line (Homo sapiens (Human), UniProt P03372); test: Western blotting assay, CAMA-1 cells; type: cell-based; conditions: 100 nM compound, 48 h; normalised to vehicle (0%) and 100 nM fulvestrant (100%)
estrogen receptor (ERα) in CAMA-1 human breast cancer cell line, sequence (P03372 whole entry): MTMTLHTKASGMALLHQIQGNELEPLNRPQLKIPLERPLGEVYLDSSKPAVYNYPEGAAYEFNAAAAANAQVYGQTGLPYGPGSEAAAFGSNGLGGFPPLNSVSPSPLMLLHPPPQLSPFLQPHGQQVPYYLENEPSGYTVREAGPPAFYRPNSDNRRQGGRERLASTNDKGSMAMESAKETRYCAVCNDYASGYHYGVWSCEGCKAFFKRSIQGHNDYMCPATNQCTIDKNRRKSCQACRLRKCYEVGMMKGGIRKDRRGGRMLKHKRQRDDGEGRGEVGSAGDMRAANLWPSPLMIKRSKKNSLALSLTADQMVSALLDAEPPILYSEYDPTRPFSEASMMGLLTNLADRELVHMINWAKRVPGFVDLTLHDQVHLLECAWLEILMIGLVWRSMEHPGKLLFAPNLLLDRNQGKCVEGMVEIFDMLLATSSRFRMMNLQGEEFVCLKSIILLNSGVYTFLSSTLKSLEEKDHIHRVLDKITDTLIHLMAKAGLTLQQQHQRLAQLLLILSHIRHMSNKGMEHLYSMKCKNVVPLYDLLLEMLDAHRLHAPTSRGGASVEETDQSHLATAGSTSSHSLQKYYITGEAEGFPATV
Description: (§1) The ability of compounds to down-regulate estrogen receptor (ER) was assessed by western blotting using human breast cancer cell lines (MCF-7 and CAMA-1). Cells were plated into 12-well tissue culture-treated plates at 0.5×10^6/well in phenol red-free RPMI containing 2 mM L-glutamine and 5% (v/v) charcoal treated foetal calf serum (F6765, Sigma). Cells were incubated with compounds (100 nM) or vehicle control (0.1% DMSO) for 48 h at 37° C., 5% CO2 before washing once with PBS and lysing with 80 μl lysis buffer (25 mM Tris/HCl, 3 mM EDTA, 3 mM EGTA, 50 mM NaF, 2 mM sodium orthovanadate, 0.27 M sucrose, 10 mM β-glycerophosphate, 5 mM sodium pyrophosphate, 0.5% TritonX-100, pH 6.8) on ice.
(§2) Cells were scraped, sonicated and centrifuged prior to performing a protein assay (DC Bio-Rad Protein kit, 500-0116) and making samples to a protein concentration of 1-2 mg/m1 in lysis buffer containing 1× LDS Sample Buffer (NP0007, Invitrogen) and 1× NuPAGE sample reducing agent (NP0009, Invitrogen). Samples were boiled for 10 min at 95° C. and then frozen at −20° C. until ready for use.
(§3) 10-20 μg protein was loaded onto 26-well Criterion gels (BioRad 345-0034). Gels were run at 125 V for 1 hr 25 min in running buffer (24 mM Tris Base Sigma, 192 mM Glycine, 3.5 mM SDS, made up in distilled water). Gels were then transferred at 30V for 2 hr in transfer buffer (25 mM Tris, 192 mM Glycine, 20% (v/v) methanol, pH 8.3, made up in distilled water) onto nitrocellulose membrane. The blot was stained with Ponceau S (P7170, Sigma) and cut according to appropriate molecular weight markers.
(§4) Membranes were blocked for 1 hour at room temp in 5% Marvel (w/v) in phosphate-buffered saline containing 0.05% Tween™ 20 (PBS/Tween). Blots were then incubated with anti-ERα (SP1) rabbit monoclonal antibody (Thermofisher) diluted 1:1000 at 4° C. overnight (with gentle shaking) followed by several washes with PBS/Tween. Secondary anti-rabbit HRP antibody (7074, CST) diluted 1:2000 dilution was incubated for 2 h at room temperature (with gentle shaking) followed by several washes with PBS/Tween. All antibodies were made up in 5% Marvel (w/v) in PBS/Tween.
(§5) The immunoblots were developed using Pierce WestDura chemiluminescent reagents (Thermo Scientific 34076) and developed/quantified on the G-box using Syngene software. Down-regulation of the ERα receptor was normalised to the vehicle control (0% down-regulation) and the 100 nM fulvestrant control (100% down-regulation) run within the same gel.

[3] = Human plasma protein binding, equilibrium dialysis (RED); type: in vitro ADME; conditions: dialysis for 18 hours
Description: Human Plasma Protein Binding
The automated equilibrium dialysis assay in human plasma uses the RED (Rapid Equilibrium Dialysis) Device and sample handling. The assay generally runs over two to three days including delivery of results. After dialysis for 18 hours, plasma and buffer samples are prepared for analysis by liquid chromatography and mass spectrometry. Samples are generally tested in singlicates and quantified by LC/MSMS by using a 7-point calibration curve in plasma. The compounds are pooled together in plasma pools up to 10 compounds. Three reference compounds are used in each run, Propranolol, Metoprolol and Warfarin. Warfarin is used as a control in each pool and Propranolol and Metoprolol are placed randomly in each run. An in-house Excel macro is used for preparation of files for the robot and the mass spectrometer and also used for the calculations of fraction unbound (fu %) in plasma.

[4] = target: estrogen receptor (ERα) in MCF-7 human breast cancer cell line (Homo sapiens (Human), UniProt P03372); test: Western blotting assay, MCF-7 cells; type: cell-based; conditions: 100 nM compound, 48 h; normalised to vehicle (0%) and 100 nM fulvestrant (100%)
estrogen receptor (ERα) in MCF-7 human breast cancer cell line, sequence (P03372 whole entry): as above
Description: as §1, §2, §3, §4, §5

[5] = target: ERα receptor in MCF-7 human ductal carcinoma breast cell line (Homo sapiens (Human), UniProt P03372); test: MCF-7 ER down regulation assay (immuno-fluorescence); type: cell-based; conditions: MCF-7 cells, 18-22 hours incubation; read-out: ER down regulation IC50 value
ERα receptor in MCF-7 human ductal carcinoma breast cell line, sequence (P03372 whole entry): as above

[6] = logD shake flask, 1-octanol/aqueous buffer; type: physicochemical; conditions: pH 7.4
Source text: The lipophilicity of a drug is an important physical property which may influence many biological and metabolic properties of a compound. The distribution coefficient between 1-octanol and aqueous buffer, Log DO/W, at pH 7.4, is the most commonly used measurement of the lipophilicity of a compound. The current method for measurement of Log DO/W is based on the traditional shake flask technique, but with the modification of measuring compounds in mixtures of ten at a time using UPLC with quantitative mass spectrometry (MS) as a method to measure the relative octanol and aqueous concentrations. […] An additional QC sample Caffeine, with low Log D, are used and randomly placed in all runs. The method has been thoroughly validated against the previous shake flask methodologies.

ERα receptor, sequence (P03372 whole entry): as above

solubility at 24 h [1] [µM]	CAMA1 Western % ER deg vs Fv [2] [%]	Human plasma protein binding (% free) [3] [% free]	MCF7 Western % ER deg vs Fv [4] [%]	DC50 [5] [nM]	logD [6]	SMILES	turnover of the receptor in patient samples (ERα receptor)
						C[C@]12CC[C@@H]3c4ccc(O)cc4C[C@@H](CCCCCCCCC[S+]([O-])CCCC(F)(F)C(F)(F)F)[C@H]3[C@@H]1CC[C@@H]2O (stereo partly shown) [Fulvestrant, fulvestrant]	less than 50%
364 (≈ 178 µg/mL)	95	11	100	0.085	3.4	COc1cc(OCCN2CC(CF)C2)ccc1[C@@H]1c2ccc3[nH]ncc3c2C[C@@H](C)N1CC(F)F [Example 7, (6S,8R)-7-(2,2-difluoroethyl)-6-(4-(2-(3-(fluoromethyl)azetidin-1-yl)ethoxy)-2-methoxyphenyl)-8-methyl-6,7,8,9-tetrahydro-3H-pyrazolo[4,3-f]isoquinoline]	
811 (≈ 408 µg/mL)	66	27	87	0.51	2.4	COCC(F)(F)CN1[C@H](c2ccc(OCCN3CC(CF)C3)cn2)c2ccc3[nH]ncc3c2C[C@H]1C [Example 10, (6S,8R)-7-(2,2-difluoro-3-methoxypropyl)-6-(5-(2-(3-(fluoromethyl)azetidin-1-yl)ethoxy)pyridin-2-yl)-8-methyl-6,7,8,9-tetrahydro-3H-pyrazolo[4,3-f]isoquinoline]	
